Values after ≈ are worked out from the molar mass of the structure shown. Like-named read-outs stand apart in the source and are kept apart here.
Tests used:
[1] = system: E. coli; assay: Aerobic antibacterial assay (agar dilution, Mueller-Hinton agar); assay type: cell-based; conditions: Escherichia coli, 24 h, read-out: Antibacterial activity (MIC, mg/l)
[2] = system: Bact. fragilis; assay: Anerobic antibacterial assay (agar dilution, Wilkins-Chalgren agar); assay type: cell-based; conditions: Bacteroides fragilis, anaerobic, 48 hours at 37° C.
[3] = system: Bact. ovatus; assay: as above; assay type: cell-based; conditions: Bacteroides ovatus; Bact. ovatus 103; anaerobic; 48 hours at 37° C.; read-out: Antibacterial activity (MIC, mg/l)
[4] = system: Bact. vulgatus; assay: as above; assay type: cell-based; conditions: Phocaeicola vulgatus, 48 h, read-out: Antibacterial activity (MIC, mg/l)
[5] = system: Bact. thetaiotaom.; assay: as above; assay type: cell-based; conditions: anaerobic, 48 hours at 37° C.
[6] = system: Bact. distasonis; assay: as above; assay type: cell-based; conditions: Parabacteroides distasonis, 48 h, read-out: Antibacterial activity (MIC, mg/l)
[7] = system: Fusobact. varium; assay: as above; assay type: cell-based; conditions: 48 h, read-out: Antibacterial activity (MIC, mg/l)
[8] = system: Spaeroph. freundii; assay: as above; assay type: cell-based; conditions: 48 h, read-out: Antibacterial activity (MIC, mg/l)
[9] = system: Peptostr. anaerobius; assay: as above; assay type: cell-based; conditions: 48 h, read-out: Antibacterial activity (MIC, mg/l)
[10] = system: Propionibact. acnes; assay: as above; assay type: cell-based; conditions: 48 h, read-out: Antibacterial activity (MIC, mg/l)
[11] = system: Clost. tetani; assay: as above; assay type: cell-based; conditions: Clostridium tetani, 48 h, read-out: Antibacterial activity (MIC, mg/l)
[12] = system: Clost. perfringens; assay: microbe, parasite or virus in culture; assay type: cell-based; conditions: Clostridium perfringens, 48 h, read-out: Antibacterial activity (MIC, mg/l)
[13] = system: Aspergillus Niger; assay: Antifungal assay (microtitration technique); assay type: cell-based; conditions: 120 h; Aspergillus Niger strain 500/284; 5 days at 30° C.
Procedure: (§1) The microtiter plate is prepared as follows: The wells are each filled (2 rows/strain) with 50 μl neopeptone-dextrose broth (12-channel pipette). In addition, one row/strain is coated with 50 μl yeast-nitrogen base/well for yeasts and moulds. […] All wells are then inoculated with 150 μl standardized organism suspension (yeasts: 1×10^3 organisms/ml suspension; cutaneous fungi and moulds: 1.6×10^5 organisms/ml suspension); the total volume is 200 μl per well. There is also a growth control (inoculated, not medicated), a solvent control (inoculated, not medicated, containing solvent as in medicated rows) and a negative control (not inoculated, not medicated). Incubation for 5 days at 30° C. is followed by photometric evaluation. The obtained measurements are checked visually (macroscopically and microscopically) and corrected where necessary. Criteria for Evaluation of the Antimycotic Effect a. Photometric measurements (matrix method) b. Growth, macroscopic evaluation c. Growth, microscopic evaluation (inversion light microscope, magn. 64×).

[14] = system: Candida Albicans; assay: Antifungal assay (microtitration technique); assay type: cell-based; conditions: 120 h; Candida Albicans strain 200/175; 5 days at 30° C.
Procedure: as §1

[15] = system: Microsporum Canis; assay: Antifungal assay (microtitration technique); assay type: cell-based; conditions: 120 h; Microsporum Canis strain 150/353; 5 days at 30° C.
Procedure: as §1

[16] = system: Trichophyton Mentagrophytes; assay: Antifungal assay (microtitration technique); assay type: cell-based; conditions: 120 h; Trichophyton Mentagrophytes strain 100/25; 5 days at 30° C.
Procedure: as §1

[17] = system: Trichophyton Rubrum; assay: Antifungal assay (microtitration technique); assay type: cell-based; conditions: 120 h; Trichophyton Rubrum strain 101/85; 5 days at 30° C.
Procedure: as §1

[18] = system: Trichophyton Vaginalis; assay: Antifungal assay (microtitration technique); assay type: cell-based; conditions: 120 h; Trichophyton Vaginalis strain 111/216; 5 days at 30° C.
Procedure: as §1

[19] = system: Staph. aureus; assay: Aerobic antibacterial assay (agar dilution, Mueller-Hinton agar); conditions: Staphylococcus aureus, 24 h
[20] = system: Strept. pyogenes; assay: as above; conditions: Streptococcus pyogenes, 24 h, read-out: Antibacterial activity (MIC, mg/l)
[21] = system: Strept. faecium; assay: as above; conditions: Enterococcus faecium, 24 h, read-out: Antibacterial activity (MIC, mg/l)
[22] = system: S. typhimurium; assay: as above; conditions: Salmonella enterica, TYPHIMURIUM, 24 h, read-out: Antibacterial activity (MIC, mg/l)
[23] = system: Klebsiella spp.; assay: as above; conditions: Klebsiella, 24 h, read-out: Antibacterial activity (MIC, mg/l)
[24] = system: E. cloacae; assay: as above; conditions: Enterobacter cloacae, 24 h, read-out: Antibacterial activity (MIC, mg/l)

**Q.** Which results are given for `CCCCCCCCCCc1cccc(C(O)C(N)CO)n1` (stereo not drawn) [erythro-2-Amino-1-(6-Decyl-2-pyridinyl)-1,3-dihydroxypropane]?
**A.** MIC ([1]; E. coli 1507E, 24 hours at 37° C.): 12.5 mg/L (≈ 40.5 µM); MIC ([1]; E. coli DC0, 24 hours at 37° C.): 12.5 mg/L (≈ 40.5 µM); MIC ([1]; E. coli DC2, 24 hours at 37° C.): 6.25 mg/L (≈ 20.3 µM); MIC ([1]; E. coli O 78, 24 hours at 37° C.): 12.5 mg/L (≈ 40.5 µM); MIC ([1]; E. coli TEM, 24 hours at 37° C.): 25 mg/L (≈ 81 µM); MIC ([2]; 48 h, read-out: Antibacterial activity (MIC, mg/l), Bact. fragilis 312): 12.5 mg/L (≈ 40.5 µM); MIC ([2]; 48 h, read-out: Antibacterial activity (MIC, mg/l), Bact. fragilis 1313): 12.5 mg/L (≈ 40.5 µM); MIC ([2]; 48 h, read-out: Antibacterial activity (MIC, mg/l), Bact. fragilis 17390): 12.5 mg/L (≈ 40.5 µM); MIC ([2]; 48 h, read-out: Antibacterial activity (MIC, mg/l), Bact. fragilis 18125): 12.5 mg/L (≈ 40.5 µM); MIC ([2]; 48 h, read-out: Antibacterial activity (MIC, mg/l), Bact. fragilis 19016): 12.5 mg/L (≈ 40.5 µM); MIC ([2]; Bact. fragilis 960, read-out: Antibacterial activity (MIC, mg/l)): 6.25 mg/L (≈ 20.3 µM); MIC [3]: 6.25 mg/L (≈ 20.3 µM); MIC [4]: 12.5 mg/L (≈ 40.5 µM); MIC ([5]; 48 h, read-out: Antibacterial activity (MIC, mg/l), Bact. thetaiotaom. 1428): 12.5 mg/L (≈ 40.5 µM); MIC ([5]; 48 h, read-out: Antibacterial activity (MIC, mg/l), Bact. thetaiotaom. 1445): 12.5 mg/L (≈ 40.5 µM); MIC ([5]; Bact. thetaiotaom. 123, read-out: Antibacterial activity (MIC, mg/l)): 6.26 mg/L (≈ 20.3 µM); MIC [6]: 12.5 mg/L (≈ 40.5 µM); MIC [7]: 12.5 mg/L (≈ 40.5 µM); MIC [8]: 12.5 mg/L (≈ 40.5 µM); MIC [9]: 12.5 mg/L (≈ 40.5 µM); MIC [10]: 12.5 mg/L (≈ 40.5 µM); MIC [11]: 12.5 mg/L (≈ 40.5 µM); MIC [12]: 12.5 mg/L (≈ 40.5 µM); MIC [13]: 31.2 µg/mL (≈ 101 µM); MIC [14]: 31.2 µg/mL (≈ 101 µM); MIC [15]: 31.2 µg/mL (≈ 101 µM); MIC [16]: 31.2 µg/mL (≈ 101 µM); MIC [17]: 31.2 µg/mL (≈ 101 µM); MIC [18]: 15.6 µg/mL (≈ 50.7 µM); MIC ([19]; read-out: Antibacterial activity (MIC, mg/l)): 6.25 mg/L (≈ 20.3 µM); MIC ([19]; read-out: Antibacterial activity (MIC, mg/l), Staph. aureus 285, aerobic, 24 hours at 37° C.): 12.5 mg/L (≈ 40.5 µM); MIC ([19]; read-out: Antibacterial activity (MIC, mg/l), Staph. aureus SG511, aerobic, 24 hours at 37° C.): 12.5 mg/L (≈ 40.5 µM); MIC [20]: 6.25 mg/L (≈ 20.3 µM); MIC [21]: 12.5 mg/L (≈ 40.5 µM); MIC [22]: 12.5 mg/L (≈ 40.5 µM); MIC [23]: 12.5 mg/L (≈ 40.5 µM); MIC [24]: 12.5 mg/L (≈ 40.5 µM)
